Measured values taken from patent publication US10294228B2, “Breathing control modulating compounds, and methods of making and using same” (NEURAD LTD., priority 2015, dated 2019).
Where a name gives a salt, the structure may show the parent alone.

Assays:
Type in all cases: in vivo, rat
[1] = tested on: morphine-tolerant rats (CSA model); assay: Apnea hypopnea index and ventilation during sleep in rats receiving chronic morphine (CSA model); details: 10 mg/kg PO, FIG. 15
Protocol: Central sleep apnea (CSA) and hypopnea are especially prevalent in people on chronic opioid therapy. Accordingly, a novel rodent model of chronic opioid-induced sleep disordered breathing that mimics many features of the condition in people was developed.
Morphine was administered chronically to rats in their drinking water at a dose and duration that elicited morphine tolerance. Morphine sulfate was added to the drinking water of individually housed rats beginning at 0.1 mg/ml morphine and increasing the concentration in increments so that a final concentration of 0.6 mg/ml was achieved within 2 weeks of beginning morphine exposure. During the first three weeks after starting morphine administration, rats were acclimated to whole body plethysmography chambers.
Respiratory rate (fR), tidal volume (VT), minute volume (VE), and CSA and hypopnea frequency and length (i.e., duration of each apnea) were measured continuously while animals were unrestrained in whole-body plethysmography chambers. Animals breathed room air for the duration of the study, except where indicated for the hyperoxia validation study. […]
A respiratory waveform was generated from the expansion and contraction of the air that was exchanged between the animal and the chamber. […] The airflow signal was amplified and continuously recorded using PowerLab and LabChart 7.0. […]

[2] = tested on: anesthetized supine rats with spontaneous obstructive apneas; assay: Spontaneous obstructive apnea model
Protocol: (§1) Two rodent models of obstructive apnea were used: one that modeled spontaneous obstructions (spontaneous obstructive apnea model) which become progressively worse over time, and another (evoked obstructive apnea model) where the investigator retained control over the variables that define OSA severity, such as apnea frequency (f OA) and apnea duration (OA t).
The majority of studies were conducted using the spontaneous obstructive apnea model, where rats were positioned in dorsal recumbency (supine), and permitted to breathe spontaneously on room air. Air flow was measured continuously by whole-body plethysmography. […] OA were defined as periods of no air flow for more than 2 respiratory cycles accompanied by efforts to breathe (e.g., increased transthoracic esophageal inspiratory pressure). After neck flexion, eupnea became increasingly interrupted by clusters of upper airway obstructions (f OA 30±3 hr^−1 (mean±SEM), range: 13 to 94 hr^−1; OA t 11±3 s, range: 6 to 15 s). OA severity was further quantified by the peak change in hemoglobin oxygen saturation during an obstruction (ΔSpO2: −20±1%, range: −11 to −31%). Clustered OAs were often separated by long periods of eupneic breathing, which presumably returned when activation of a relevant afferent/effector reflex (e.g., chemoreceptor driven increased motor drive to the genioglossus muscle) reached a threshold necessary to reestablish a patent upper airway.
(§2) All animal experiments were performed according to protocols approved by the Institutional Animal Care and Use Committee (IACUC) at Galleon Pharmaceuticals, Inc. All experimental procedures were performed under general anesthesia. All experiments were non-survival procedures and animals were euthanized at the conclusion of the experiment prior to the animal recovering from anesthesia. Two rodent models of obstructive apnea were used, one that modeled spontaneous obstructions that become progressively worse over time (Spontaneous Obstructive Apnea Model), and another where the investigator retained control over the parameters that defined OSA severity, such as f OA, and OA t, and by controlling these directly also controlling of the magnitude of oxy-hemoglobin desaturation (Evoked Obstructive Apnea Model).
Rats were initially anesthetized in a rodent anesthesia induction chamber using 3% (dial setting) isoflurane in 97% oxygen (O2) for surgical instrumentation. When rats had become recumbent they were removed from the chamber and placed in dorsal recumbency (supine) on a heating pad. Anesthesia was maintained with 2% isoflurane in 98% oxygen and rats were permitted to breathe spontaneously on room air. After instrumentation, isoflurane was slowly discontinued and urethane (1.5 to 1.8 g/kg, IV) administered to maintain anesthesia without interruption. Supplemental oxygen was discontinued at this time.
The femoral artery was cannulated to permit continuous recording of arterial blood pressure and intermittent sampling of blood for pH and blood gas analyses, and single time point quantification of test article plasma concentrations. The femoral vein was cannulated to permit test compound administration and fluid support. The arterial cannula was connected to a heparinized saline filled pressure transducer. The arterial pressure waveforms were sampled at 2K/second and band-pass filtered between 0-1000 Hz. […]

[3] = tested on: rats with evoked obstructions; assay: Evoked obstructive apnea model
Protocol: as §1, §2

## CCCNc1nc(NC)nc2c(NCC(C)(C)O)nc(NC)nc12 [Compound 31a, 1-(2,6-Bis-methylamino-8-propylamino-pyrimido[5,4-d]pyrimidin-4-ylamino)-2-methyl-propan-2-ol Hydrochloride]
[1]
  apnea-hypopnea index: reduces
  minute volume: without significantly increasing
[2]; FIG. 18, model not named in the legend
  SpO2 desaturations: reduction
[2]; FIG. 19, model not named in the legend
  frequency of obstructive apneas (OA): reduction
[2]; FIG. 20, model not named in the legend
  arterial oxygen content deficit: reduction
[2]; FIG. 22
  upper airway (total genioglossus EMG amplitude) response to spontaneous obstructive apneas: increase
[2]; IV infusion, FIG. 23
  upper airway response (genioglossus activity) to spontaneous obstructive apneas: dose-dependently increases
[3]; rats, IV infusion MD 0.008 mg/kg/min 15 min then 0.002 mg/kg/min 45 min, HD 0.024 then 0.006 mg/kg/min, FIG. 21A
  airway (genioglossus, or GG) responses to evoked obstructions: increases
[3]; same rats and infusions as FIG. 21A, FIG. 21B
  diaphragm (DIA) responses to evoked obstructions: insignificant increases
